ChEMBL document CHEMBL1158509, “Novel selective thiazoleacetic acids as CRTH2 antagonists developed from in silico derived hits. Part 2” (Bioorg Med Chem Lett, 2010)
pIC50: −log10 of the molar value.

What was measured:
[1] = target: T1, Prostaglandin D2 receptor 2 (Homo sapiens, UniProt Q9Y5Y4); assay: Displacement of[3H]PGD2 from human CRTH2 receptor expressed in […] cells; type: cell-based
T1 sequence (Q9Y5Y4 whole entry): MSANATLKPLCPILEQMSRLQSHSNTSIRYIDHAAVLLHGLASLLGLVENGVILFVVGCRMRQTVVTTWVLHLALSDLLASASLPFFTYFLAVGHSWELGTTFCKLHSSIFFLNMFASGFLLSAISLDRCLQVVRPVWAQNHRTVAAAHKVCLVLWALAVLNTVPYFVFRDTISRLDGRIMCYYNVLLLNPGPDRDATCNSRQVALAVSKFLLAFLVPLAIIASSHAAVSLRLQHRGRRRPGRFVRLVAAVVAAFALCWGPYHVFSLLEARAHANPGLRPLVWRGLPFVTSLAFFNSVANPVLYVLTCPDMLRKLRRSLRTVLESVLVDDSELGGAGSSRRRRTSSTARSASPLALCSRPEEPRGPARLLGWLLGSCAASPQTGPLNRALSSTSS

[2] = target: T2, Prostaglandin D2 receptor 2 (Homo sapiens) (UniProt Q9Y5Y4); assay: Antagonist activity at human CRTH2 receptor expressed in […] cells assessed as inhibition of beta arrestin translocation by bioluminescence resonance energy transfer assay relative to control; type: functional, cell-based
T2 sequence (whole entry): T1 sequence (Q9Y5Y4 whole entry)

[3] = target: T1, Prostaglandin D2 receptor 2; assay: Antagonist activity at human CRTH2 receptor expressed in […] cells assessed as inhibition of beta arrestin translocation by bioluminescence resonance energy transfer assay; type: functional, cell-based

SMILES | pIC50 [1] | Efficacy [2] | pIC50 [3]
O=C(O)Cc1sc(C(c2ccc(F)cc2)c2ccc(F)cc2)nc1-c1ccnc(N2CCCC2)c1 | 6.64 | 80% | < 4.00
O=C(O)Cc1sc(NCc2ccccc2)nc1-c1ccc(Cl)cc1 | 6.36 | 30% | 5.64
COc1ccc(C(c2ccccc2)c2nc(-c3ccc(Cl)cc3)c(CC(=O)O)s2)cc1 (configuration not stated) | 8.08 | 80% | 7.12
O=C(O)Cc1sc(C(c2ccc(F)cc2)c2ccc(F)cc2)nc1-c1ccc(F)c(F)c1 | 8.46 | 80% | 7.39
O=C(O)Cc1sc(C(c2ccccc2)c2ccc(F)c(F)c2)nc1-c1ccc(F)cc1 (configuration not stated) | 8.00 | 80% | 7.19
NS(=O)(=O)c1ccc(-c2nc(C(c3ccc(F)cc3)c3ccc(F)cc3)sc2CC(=O)O)cc1 | 5.82 | 80% | < 4.00
O=C(O)Cc1sc(C(c2ccc(F)cc2)c2ccc(F)cc2)nc1-c1ccn[nH]1 | 6.55 | 30% | 5.48
COc1cc(-c2nc(C(c3ccc(F)cc3)c3ccc(F)cc3)sc2CC(=O)O)ccn1 | 7.54 | 60% | 6.42
O=C(O)Cc1sc(C(c2ccccc2)c2cccc(Cl)n2)nc1-c1ccc(Cl)cc1 (configuration not stated) | 5.49 | 80% | < 4.00
O=C(O)Cc1sc(C(c2ccccc2)c2ccccc2)nc1-c1ccc(C(F)(F)F)cc1 | 5.96 | 80% | < 4.00
CS(=O)(=O)c1cccc(-c2nc(C(c3ccc(F)cc3)c3ccc(F)cc3)sc2CC(=O)O)c1 | 6.23 | 30% | 5.20
CCC(c1ccccc1)c1nc(-c2ccc(Cl)cc2)c(CC(=O)O)s1 (configuration not stated) | 6.72 | 50% | < 4.00
CC(=O)N1CCC(c2ccccc2)(c2nc(-c3ccc(Cl)cc3)c(CC(=O)O)s2)CC1 | 7.28 | 50% | 6.26
O=C(O)Cc1sc(CS(=O)(=O)c2ccc(Cl)cc2)nc1-c1ccc(Cl)cc1 | 5.82 | 30% | 6.14
O=C(O)Cc1sc(C(c2ccc(F)cc2)c2ccc(F)cc2)nc1-c1cn[nH]c1 | 7.80 | 80% | 6.66
O=C(O)Cc1sc(C(c2ccccc2)c2ccccc2)nc1-c1cccc(F)c1 | 8.54 | 80% | 7.54
O=C(O)Cc1sc(Cc2ccccc2-c2ccccc2)nc1-c1ccc(Cl)cc1 |  | 50% | 
O=C(O)Cc1sc(C(c2ccccc2)c2ccc(Cl)cc2)nc1-c1ccc(Cl)cc1 (configuration not stated) | 7.35 | 80% | 7.12
O=C(O)Cc1sc(Nc2cccc3ccccc23)nc1-c1ccc(Cl)cc1 | 6.82 | 50% | 7.02
O=C(O)Cc1sc(C(c2ccccc2)c2ccccc2)nc1-c1ccccc1 | 6.24 | 80% | 6.43
O=C(O)Cc1sc(C(c2ccccc2)c2ccccn2)nc1-c1ccc(Cl)cc1 (configuration not stated) | 6.09 | 55% | 5.72

SMILES | pIC50 [1] | Efficacy [2] | pIC50 [3]
O=C(O)Cc1sc(C(c2ccc(F)cc2)c2ccc(F)cc2)nc1-c1ccc(F)cc1 | 8.12 | 80% | 7.14
O=C(O)Cc1sc(Cc2cccc3ccccc23)nc1-c1ccc(Cl)cc1 | 7.39 | 30% | 6.24
O=C(O)Cc1sc(C2COc3ccccc3O2)nc1-c1ccc(Cl)cc1 (configuration not stated) | 6.30 | 50% | 5.70
Cc1cc(-c2nc(C(c3ccc(F)cc3)c3ccc(F)cc3)sc2CC(=O)O)ccn1 | 8.51 | 80% | 7.28
CS(=O)(=O)Nc1cccc(-c2nc(C(c3ccc(F)cc3)c3ccc(F)cc3)sc2CC(=O)O)c1 | 7.40 | 80% | 6.43
O=C(O)Cc1sc(C(c2ccc(F)cc2)c2ccc(F)cc2)nc1-c1ccc(Cl)cc1 | 8.01 | 80% | 6.74
CC(=O)N1CCN(c2cc(-c3nc(C(c4ccc(F)cc4)c4ccc(F)cc4)sc3CC(=O)O)ccn2)CC1 | 6.44 | 80% | < 4.00
O=C(O)Cc1sc(CSc2ccccc2)nc1-c1ccc(Cl)cc1 | 6.60 | 50% | 6.35
N#Cc1cc(-c2nc(C(c3ccc(F)cc3)c3ccc(F)cc3)sc2CC(=O)O)ccc1F | 7.24 | 80% | 6.28
O=C(O)Cc1sc(C(c2ccccc2)c2ccccc2)nc1-c1ccc(F)cc1 | 8.06 | 80% | 7.11
Nc1cc(-c2nc(C(c3ccc(F)cc3)c3ccc(F)cc3)sc2CC(=O)O)ccn1 | 8.32 | 80% | 7.19
O=C(O)Cc1sc(C2(c3ccccc3)CCNCC2)nc1-c1ccc(Cl)cc1 | 5.54 | 50% | < 4.00
O=C(O)Cc1sc(C(c2ccccc2)c2ccc(Cl)cc2)nc1-c1ccc(F)cc1 (configuration not stated) | 7.85 | 80% | 7.10
O=C(O)Cc1sc(C(c2ccc(F)cc2)c2ccc(F)cc2)nc1-c1ccncc1 | 8.28 | 80% | 7.40
COc1ccc(-c2nc(C(c3ccccc3)c3ccccc3)sc2CC(=O)O)cc1 | 6.43 | 55% | 6.04
Cn1cc(-c2nc(C(c3ccc(F)cc3)c3ccc(F)cc3)sc2CC(=O)O)cn1 | 5.89 | 80% | 5.46
O=C(O)Cc1sc(COc2ccc(Cl)cc2)nc1-c1ccc(Cl)cc1 | 7.49 | 50% | 6.43
O=C(O)Cc1sc(C(c2ccc(F)cc2)c2ccc(F)cc2)nc1-c1cccnc1 | 7.17 | 80% | 6.29
N#Cc1cccc(-c2nc(C(c3ccc(F)cc3)c3ccc(F)cc3)sc2CC(=O)O)c1 | 7.70 | 80% | 6.66
O=C(O)Cc1sc(C(c2ccc(F)cc2)c2ccc(F)cc2)nc1-c1ccccc1 | 7.80 | 80% | 6.62
O=C(O)Cc1sc(-c2ccccc2)nc1-c1ccc(Cl)cc1 [FENTIAZAC] |  | 50% | 6.02

SMILES | pIC50 [1] | Efficacy [2] | pIC50 [3]
O=C(O)Cc1sc(NC(=O)c2ccccc2)nc1-c1ccc(Cl)cc1 | 6.28 | 50% | 6.06
O=C(O)Cc1sc(Cc2ccccc2)nc1-c1ccc(Cl)cc1 |  | 50% | 
COc1ccc(C(c2ccc(OC)cc2)c2nc(-c3ccc(F)cc3)c(CC(=O)O)s2)cc1 | 8.41 | 80% | 7.51
O=C(O)Cc1sc(NCCc2ccccc2)nc1-c1ccc(Cl)cc1 | 6.19 | 50% | 6.41
O=C(O)Cc1sc(C(c2ccc(F)cc2)c2ccc(F)cc2)nc1-c1cc(F)nc(F)c1 | 8.27 | 80% | 6.96
COc1ccc(C(c2ccccn2)c2nc(-c3ccc(Cl)cc3)c(CC(=O)O)s2)cc1 (configuration not stated) | 7.21 | 80% | 6.51
O=C(O)Cc1sc(-c2ccc(Oc3ccccc3)cc2)nc1-c1ccc(Cl)cc1 |  | 50% | 5.89
O=C(O)Cc1sc(C(c2ccc(F)cc2)c2ccc(F)cc2)nc1-c1cncc(F)c1 | 7.15 | 80% | 6.52
O=C(O)Cc1sc(C(c2ccccc2)C2CCCCC2)nc1-c1ccc(Cl)cc1 (configuration not stated) | 6.28 | 50% | < 4.00
O=C(O)Cc1sc(CC(c2ccccc2)c2ccccc2)nc1-c1ccc(Cl)cc1 | 6.47 | 50% | 4.49
O=C(O)Cc1sc(C(c2ccccc2)c2ccc(F)cc2)nc1-c1ccc(Cl)cc1 (configuration not stated) | 7.77 | 80% | 7.44
CN(C)c1cc(-c2nc(C(c3ccc(F)cc3)c3ccc(F)cc3)sc2CC(=O)O)ccn1 | 6.42 | 80% | < 4.00
O=C(O)Cc1sc(C(c2ccc(F)cc2)c2ccc(F)cc2)nc1-c1ccnc(N2CCC2)c1 | 6.18 | 80% | < 4.00
O=C(O)Cc1sc(C(Cc2ccccc2)c2ccccc2)nc1-c1ccc(Cl)cc1 (configuration not stated) | 7.25 | 50% | 6.29
O=C(O)Cc1sc(C(c2ccccc2)c2ccc(O)cc2)nc1-c1ccc(F)cc1 (configuration not stated) | 8.47 | 80% | 7.52
NS(=O)(=O)c1cccc(-c2nc(C(c3ccc(F)cc3)c3ccc(F)cc3)sc2CC(=O)O)c1 | 6.85 | 55% | 6.15
Cc1cc(-c2nc(C(c3ccc(F)cc3)c3ccc(F)cc3)sc2CC(=O)O)cnc1N | 6.06 | 80% | < 4.00
O=C(O)Cc1sc(C(c2ccc(F)cc2)c2ccc(F)cc2)nc1-c1ccnc(O)c1 |  | 60% | 
COc1ccc(OC)c(-c2nc(C(c3ccccc3)c3ccccc3)sc2CC(=O)O)c1 |  | 80% | < 4.00
O=C(O)Cc1sc(C(c2ccc(F)cc2)c2ccc(F)cc2)nc1-c1cc[nH]c(=O)c1 | 7.17 |  | 6.05
O=C(O)Cc1sc(Nc2ccccc2)nc1-c1ccc(Cl)cc1 |  | 50% | 
